Results published in ChEMBL document CHEMBL1201862, “PubChem BioAssay data set” (2004).
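Dose response: 5 concentrations. Exposure: 48 h. Format: 96-well plates. Endpoint: linear interpolation; highest concentration if not reached. GI50: concentration for 50% inhibition of growth.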 The source made the active and inactive calls. No stated cut-off is given here; in the data, active = GI50 up to about 1.1 µM and inactive = higher.

Columns and labels:
Test in all cases: growth of human tumour cells (NCI), 48 h
A549 = test system: A549
HCC 2998 = test system: HCC 2998
DU-145 = test system: DU-145
LOX IMVI = test system: LOX IMVI
MOLT-4 = test system: MOLT-4
ACHN = test system: ACHN
NCI/ADR-RES = test system: NCI/ADR-RES
RPMI-8226 = test system: RPMI-8226
SN12C = test system: SN12C
HOP-92 = test system: HOP-92
RXF 393 = test system: RXF 393
SW-620 = test system: SW-620
MCF7 = test system: MCF7
SK-MEL-5 = test system: SK-MEL-5
786-0 = test system: 786-0
HCT-15 = test system: HCT-15
MDA-N = test system: MDA-N
Hs-578T = test system: Hs-578T
HOP-62 = test system: HOP-62
CAKI-1 = test system: CAKI-1
K562 = test system: K562
IGROV-1 = test system: IGROV-1
HCT-116 = test system: HCT-116
Malme-3M = test system: Malme-3M
SNB-75 = test system: SNB-75
MDA-MB-231 = test system: MDA-MB-231
UACC-62 = test system: UACC-62
SK-OV-3 = test system: SK-OV-3
T47D = test system: T47D
SF-295 = test system: SF-295
PC-3 = test system: PC-3
KM12 = test system: KM12
NCI-H23 = test system: NCI-H23
NCI-H226 = test system: NCI-H226
UACC-257 = test system: UACC-257
SF-268 = test system: SF-268
A498 = test system: A498
OVCAR-8 = test system: OVCAR-8
HL-60 = test system: HL-60
OVCAR-5 = test system: OVCAR-5
HT-29 = test system: HT-29
NCI-H460 = test system: NCI-H460
COLO 205 = test system: COLO 205
MDA-MB-435 = test system: MDA-MB-435
SNB-19 = test system: SNB-19
SR = test system: SR
M14 = test system: M14
EKVX = test system: EKVX
CCRF-CEM = test system: CCRF-CEM
NCI-H522 = test system: NCI-H522
UO-31 = test system: UO-31
SK-MEL-28 = test system: SK-MEL-28
U-251 = test system: U-251
SK-MEL-2 = test system: SK-MEL-2
BT-549 = test system: BT-549
OVCAR-3 = test system: OVCAR-3
TK-10 = test system: TK-10
SF-539 = test system: SF-539
OVCAR-4 = test system: OVCAR-4

`CNC(=O)c1nn[nH]c1O` was tested, and the GI50 (A549) was > 100 µM (inactive), the GI50 (HCC 2998) was > 100 µM (inactive) and the GI50 (DU-145) was > 100 µM (inactive). The GI50 (LOX IMVI) was > 100 µM (inactive), the GI50 (MOLT-4) was > 100 µM (inactive) and the GI50 (ACHN) was > 100 µM (inactive). The GI50 (NCI/ADR-RES) was > 100 µM (inactive), the GI50 (RPMI-8226) was > 100 µM (inactive) and the GI50 (SN12C) was > 100 µM (inactive). For the same compound, the GI50 (HOP-92) was > 100 µM (inactive), the GI50 (RXF 393) was > 100 µM (inactive) and the GI50 (SW-620) was > 100 µM (inactive). The GI50 (MCF7) was > 100 µM (inactive), the GI50 (SK-MEL-5) was > 100 µM (inactive) and the GI50 (786-0) was > 100 µM (inactive). For the same compound, the GI50 (HCT-15) was > 100 µM, the GI50 (MDA-N) was > 100 µM (inactive) and the GI50 (Hs-578T) was 98.4 µM (inactive). For the same compound, the GI50 (HOP-62) was > 100 µM (inactive), the GI50 (CAKI-1) was > 100 µM (inactive) and the GI50 (K562) was > 100 µM (inactive). For the same compound, the GI50 (IGROV-1) was > 100 µM (inactive), the GI50 (HCT-116) was > 100 µM (inactive) and the GI50 (Malme-3M) was > 100 µM (inactive). The GI50 (SNB-75) was 74.1 µM (inactive), the GI50 (MDA-MB-231) was > 100 µM (inactive) and the GI50 (UACC-62) was > 100 µM (inactive). The GI50 (SK-OV-3) was > 100 µM (inactive), the GI50 (T47D) was > 100 µM (inactive) and the GI50 (SF-295) was > 100 µM (inactive). For the same compound, the GI50 (PC-3) was > 100 µM (inactive), the GI50 (KM12) was > 100 µM (inactive) and the GI50 (NCI-H23) was > 100 µM (inactive). For the same compound, the GI50 (NCI-H226) was > 100 µM (inactive), the GI50 (UACC-257) was > 100 µM (inactive) and the GI50 (SF-268) was > 100 µM (inactive). The GI50 (A498) was > 100 µM (inactive), the GI50 (OVCAR-8) was > 100 µM (inactive) and the GI50 (HL-60) was > 100 µM (inactive). The GI50 (OVCAR-5) was > 100 µM (inactive), the GI50 (HT-29) was > 100 µM (inactive) and the GI50 (NCI-H460) was > 10 µM (inactive). The GI50 (COLO 205) was > 100 µM (inactive), the GI50 (MDA-MB-435) was > 100 µM (inactive) and the GI50 (SNB-19) was > 100 µM (inactive). For the same compound, the GI50 (SR) was > 100 µM (inactive), the GI50 (M14) was > 100 µM (inactive) and the GI50 (EKVX) was > 100 µM (inactive). For the same compound, the GI50 (CCRF-CEM) was > 100 µM (inactive), the GI50 (NCI-H522) was > 100 µM (inactive) and the GI50 (UO-31) was > 100 µM (inactive). The GI50 (SK-MEL-28) was > 100 µM (inactive), the GI50 (U-251) was > 100 µM (inactive) and the GI50 (SK-MEL-2) was > 100 µM (inactive).
In the case of `CNC(=O)C(C)C1C(=O)/C(=C(O)/C=C\C(C)=C\C(C)C2OC3(C)OC(C=CC34CO4)C2C)C(=O)N1C1CCC(O)C(C)O1` (stereo unspecified), the GI50 (A549) is reported as > 100 µM (inactive), the GI50 (HCC 2998) is reported as > 100 µM (inactive) and the GI50 (DU-145) is reported as > 100 µM (inactive). The GI50 (BT-549) was > 100 µM (inactive), the GI50 (OVCAR-3) was > 100 µM (inactive) and the GI50 (MOLT-4) was > 100 µM (inactive). The GI50 (ACHN) was > 100 µM (inactive), the GI50 (NCI/ADR-RES) was > 100 µM (inactive) and the GI50 (RPMI-8226) was > 100 µM (inactive). For the same compound, the GI50 (SN12C) was > 100 µM (inactive), the GI50 (RXF 393) was > 100 µM (inactive) and the GI50 (SW-620) was > 100 µM (inactive). The GI50 (MCF7) was > 100 µM (inactive), the GI50 (SK-MEL-5) was > 100 µM (inactive) and the GI50 (786-0) was > 100 µM (inactive). The GI50 (HCT-15) was > 100 µM, the GI50 (MDA-N) was > 100 µM (inactive) and the GI50 (HOP-62) was > 100 µM (inactive). For the same compound, the GI50 (CAKI-1) was > 100 µM (inactive), the GI50 (K562) was > 100 µM (inactive) and the GI50 (IGROV-1) was > 100 µM (inactive). The GI50 (HCT-116) was > 100 µM (inactive), the GI50 (Malme-3M) was > 100 µM (inactive) and the GI50 (SNB-75) was > 100 µM (inactive). For the same compound, the GI50 (TK-10) was > 100 µM (inactive), the GI50 (MDA-MB-231) was > 100 µM (inactive) and the GI50 (UACC-62) was > 100 µM (inactive). For the same compound, the GI50 (SK-OV-3) was > 100 µM (inactive), the GI50 (SF-539) was > 100 µM (inactive) and the GI50 (T47D) was > 100 µM (inactive). For the same compound, the GI50 (PC-3) was > 100 µM (inactive), the GI50 (KM12) was > 100 µM (inactive) and the GI50 (UACC-257) was > 100 µM (inactive). For the same compound, the GI50 (SF-268) was > 100 µM (inactive), the GI50 (A498) was > 100 µM (inactive) and the GI50 (OVCAR-8) was > 100 µM (inactive). For the same compound, the GI50 (OVCAR-5) was > 100 µM (inactive), the GI50 (HT-29) was > 100 µM (inactive) and the GI50 (NCI-H460) was > 100 µM (inactive). For the same compound, the GI50 (COLO 205) was > 100 µM (inactive), the GI50 (MDA-MB-435) was > 100 µM (inactive) and the GI50 (SNB-19) was > 100 µM (inactive). The GI50 (SR) was > 100 µM (inactive), the GI50 (M14) was > 100 µM (inactive) and the GI50 (EKVX) was > 100 µM (inactive). For the same compound, the GI50 (CCRF-CEM) was > 100 µM (inactive), the GI50 (UO-31) was > 100 µM (inactive) and the GI50 (SK-MEL-28) was > 100 µM (inactive). For the same compound, the GI50 (U-251) was > 100 µM (inactive) and the GI50 (SK-MEL-2) was > 100 µM (inactive).
In the case of `NC(=O)N/N=C\CC(O)(C(F)(F)Cl)C(F)(F)Cl`, the GI50 (A549) is reported as > 10 µM (inactive), the GI50 (HCC 2998) is reported as > 10 µM (inactive) and the GI50 (DU-145) is reported as > 10 µM (inactive). For the same compound, the GI50 (OVCAR-4) was > 10 µM (inactive), the GI50 (LOX IMVI) was > 10 µM (inactive) and the GI50 (OVCAR-3) was > 10 µM (inactive). For the same compound, the GI50 (MOLT-4) was > 10 µM (inactive), the GI50 (ACHN) was > 10 µM (inactive) and the GI50 (NCI/ADR-RES) was > 10 µM (inactive). The GI50 (RPMI-8226) was > 10 µM (inactive), the GI50 (SN12C) was > 10 µM (inactive) and the GI50 (HOP-92) was > 10 µM (inactive). For the same compound, the GI50 (RXF 393) was > 10 µM (inactive), the GI50 (SW-620) was > 10 µM (inactive) and the GI50 (MCF7) was > 10 µM (inactive). The GI50 (SK-MEL-5) was > 10 µM (inactive), the GI50 (786-0) was > 10 µM (inactive) and the GI50 (HCT-15) was > 10 µM. For the same compound, the GI50 (MDA-N) was > 10 µM (inactive), the GI50 (Hs-578T) was > 10 µM (inactive) and the GI50 (HOP-62) was > 10 µM (inactive). For the same compound, the GI50 (CAKI-1) was > 10 µM (inactive), the GI50 (K562) was > 10 µM (inactive) and the GI50 (IGROV-1) was > 10 µM (inactive). The GI50 (HCT-116) was > 10 µM (inactive), the GI50 (Malme-3M) was > 10 µM (inactive) and the GI50 (SNB-75) was > 10 µM (inactive). The GI50 (TK-10) was > 10 µM (inactive), the GI50 (MDA-MB-231) was > 10 µM (inactive) and the GI50 (UACC-62) was > 10 µM (inactive). For the same compound, the GI50 (SK-OV-3) was > 10 µM (inactive), the GI50 (SF-539) was > 10 µM (inactive) and the GI50 (T47D) was > 10 µM (inactive). The GI50 (SF-295) was > 10 µM (inactive), the GI50 (PC-3) was > 10 µM (inactive) and the GI50 (KM12) was > 10 µM (inactive). For the same compound, the GI50 (NCI-H23) was > 10 µM (inactive), the GI50 (NCI-H226) was > 10 µM (inactive) and the GI50 (UACC-257) was > 10 µM (inactive). The GI50 (SF-268) was > 10 µM (inactive), the GI50 (A498) was > 10 µM (inactive) and the GI50 (OVCAR-8) was > 10 µM (inactive). For the same compound, the GI50 (HL-60) was > 10 µM (inactive), the GI50 (HT-29) was > 10 µM (inactive) and the GI50 (NCI-H460) was > 10 µM (inactive). For the same compound, the GI50 (COLO 205) was > 10 µM (inactive), the GI50 (MDA-MB-435) was > 10 µM (inactive) and the GI50 (SNB-19) was > 10 µM (inactive). For the same compound, the GI50 (SR) was > 10 µM (inactive), the GI50 (M14) was > 10 µM (inactive) and the GI50 (EKVX) was > 10 µM (inactive). The GI50 (CCRF-CEM) was > 10 µM (inactive), the GI50 (NCI-H522) was > 10 µM (inactive) and the GI50 (UO-31) was > 10 µM (inactive). The GI50 (SK-MEL-28) was > 10 µM (inactive), the GI50 (U-251) was > 10 µM (inactive) and the GI50 (SK-MEL-2) was > 10 µM (inactive).
